Source: the NIST ThermoML archive (doi:10.1021/je060139a)

Key:
[1] = xn = mol fraction of the nth substance listed; details: Wilhelmy plate method
[2] = refractive index (Na D-line) (dimensionless); xn = mol fraction of the nth substance listed; details: 100.5 kPa, Liquid, Standard Abbe refractometry

CCOC(=O)CC(C)=O [ethyl 3-oxobutanoate] + CCO
Details	refractive index, 288.15 K	refractive index, 298.18 K	refractive index, 308.15 K	refractive index, 318.15 K	surface tension liquid-gas, 288.15 K [mN/m]	surface tension liquid-gas, 298.18 K [mN/m]	surface tension liquid-gas, 308.15 K [mN/m]	surface tension liquid-gas, 318.15 K [mN/m]
[1], x1 = 0.05	–	–	–	–	23.53	22.77	21.91	20.98
[1], x1 = 0.1	–	–	–	–	24.1	23.31	22.42	21.46
[1], x1 = 0.15	–	–	–	–	24.65	23.83	22.91	21.94
[1], x1 = 0.2	–	–	–	–	25.22	24.38	23.42	22.43
[1], x1 = 0.25	–	–	–	–	25.77	24.89	23.9	22.9
[1], x1 = 0.3	–	–	–	–	26.28	25.38	24.38	23.37
[1], x1 = 0.35	–	–	–	–	26.78	25.88	24.84	23.83
[1], x1 = 0.4	–	–	–	–	27.28	26.36	25.32	24.3
[1], x1 = 0.45	–	–	–	–	27.8	26.86	25.81	24.79
[1], x1 = 0.5	–	–	–	–	28.35	27.4	26.32	25.29
[1], x1 = 0.55	–	–	–	–	28.92	27.96	26.84	25.8
[1], x1 = 0.6	–	–	–	–	29.46	28.52	27.38	26.31
[1], x1 = 0.65	–	–	–	–	30.02	29.04	27.9	26.81
[1], x1 = 0.7	–	–	–	–	30.54	29.55	28.4	27.3
[1], x1 = 0.75	–	–	–	–	31.05	30.06	28.89	27.78
[1], x1 = 0.8	–	–	–	–	31.53	30.54	29.36	28.24
[1], x1 = 0.85	–	–	–	–	32.02	31.01	29.81	28.7
[1], x1 = 0.9	–	–	–	–	32.47	31.46	30.26	29.14
[1], x1 = 0.95	–	–	–	–	32.91	31.89	30.68	29.56
[1], x1 = 1	–	–	–	–	33.3	32.3	31.1	30
[2], x1 = 0.05	1.3696	1.3654	1.3612	1.3572	–	–	–	–
[2], x1 = 0.1	1.3751	1.3709	1.3666	1.3625	–	–	–	–
[2], x1 = 0.15	1.38	1.3757	1.3714	1.3672	–	–	–	–
[2], x1 = 0.2	1.3843	1.3801	1.3758	1.3715	–	–	–	–
[2], x1 = 0.25	1.3882	1.384	1.3797	1.3755	–	–	–	–
[2], x1 = 0.3	1.3918	1.3876	1.3833	1.379	–	–	–	–
[2], x1 = 0.35	1.3951	1.3908	1.3866	1.3823	–	–	–	–
[2], x1 = 0.4	1.3981	1.3938	1.3896	1.3852	–	–	–	–
[2], x1 = 0.45	1.4009	1.3965	1.3923	1.388	–	–	–	–
[2], x1 = 0.5	1.4034	1.3991	1.3949	1.3905	–	–	–	–
[2], x1 = 0.55	1.4058	1.4014	1.3972	1.3928	–	–	–	–
[2], x1 = 0.6	1.4079	1.4036	1.3994	1.395	–	–	–	–
[2], x1 = 0.65	1.41	1.4056	1.4014	1.397	–	–	–	–
[2], x1 = 0.7	1.4119	1.4075	1.4033	1.3989	–	–	–	–
[2], x1 = 0.75	1.4137	1.4093	1.4051	1.4007	–	–	–	–
[2], x1 = 0.8	1.4154	1.4111	1.4069	1.4024	–	–	–	–
[2], x1 = 0.85	1.417	1.4126	1.4084	1.404	–	–	–	–
[2], x1 = 0.9	1.4184	1.4141	1.4099	1.4054	–	–	–	–
[2], x1 = 0.95	1.4198	1.4154	1.4112	1.4068	–	–	–	–
[2], x1 = 1	1.4209	1.4166	1.4125	1.408	–	–	–	–

CCOC(=O)c1ccccc1O [ethyl 2-hydroxybenzoate] + CCO
Details	refractive index, 288.15 K	refractive index, 298.18 K	refractive index, 308.15 K	refractive index, 318.15 K	surface tension liquid-gas, 288.15 K [mN/m]	surface tension liquid-gas, 298.18 K [mN/m]	surface tension liquid-gas, 308.15 K [mN/m]	surface tension liquid-gas, 318.15 K [mN/m]
[1], x1 = 0.05	–	–	–	–	24	23.17	22.27	21.3
[1], x1 = 0.1	–	–	–	–	24.8	23.9	22.94	21.97
[1], x1 = 0.15	–	–	–	–	25.5	24.55	23.55	22.57
[1], x1 = 0.2	–	–	–	–	26.1	25.14	24.13	23.17
[1], x1 = 0.25	–	–	–	–	26.65	25.65	24.67	23.7
[1], x1 = 0.3	–	–	–	–	27.2	26.15	25.17	24.2
[1], x1 = 0.35	–	–	–	–	27.7	26.65	25.62	24.67
[1], x1 = 0.4	–	–	–	–	28.1	27.1	26.08	25.17
[1], x1 = 0.45	–	–	–	–	28.6	27.55	26.58	25.7
[1], x1 = 0.5	–	–	–	–	29.13	28.1	27.12	26.25
[1], x1 = 0.55	–	–	–	–	29.71	28.66	27.68	26.8
[1], x1 = 0.6	–	–	–	–	30.33	29.25	28.26	27.38
[1], x1 = 0.65	–	–	–	–	31	29.9	28.9	28
[1], x1 = 0.7	–	–	–	–	31.7	30.6	29.56	28.67
[1], x1 = 0.75	–	–	–	–	32.5	31.38	30.3	29.4
[1], x1 = 0.8	–	–	–	–	33.4	32.25	31.13	30.2
[1], x1 = 0.85	–	–	–	–	34.4	33.18	32.03	31.1
[1], x1 = 0.9	–	–	–	–	35.4	34.18	33.03	32.18
[1], x1 = 0.95	–	–	–	–	36.4	35.17	34.07	33.2
[1], x1 = 1	–	–	–	–	37.5	36.3	35.2	34.4
[2], x1 = 0.05	1.38326	1.37908	1.37478	1.37068	–	–	–	–
[2], x1 = 0.1	1.40028	1.39599	1.39159	1.38739	–	–	–	–
[2], x1 = 0.15	1.41504	1.41072	1.40628	1.40202	–	–	–	–
[2], x1 = 0.2	1.42788	1.42347	1.41902	1.4147	–	–	–	–
[2], x1 = 0.25	1.43914	1.43468	1.4302	1.4258	–	–	–	–
[2], x1 = 0.3	1.44918	1.44465	1.44012	1.43567	–	–	–	–
[2], x1 = 0.35	1.4582	1.45364	1.44908	1.44456	–	–	–	–
[2], x1 = 0.4	1.46635	1.46177	1.45719	1.45266	–	–	–	–
[2], x1 = 0.45	1.47375	1.46918	1.46462	1.46008	–	–	–	–
[2], x1 = 0.5	1.48051	1.47593	1.47139	1.46685	–	–	–	–
[2], x1 = 0.55	1.4867	1.48212	1.4776	1.47306	–	–	–	–
[2], x1 = 0.6	1.49239	1.48782	1.48328	1.47873	–	–	–	–
[2], x1 = 0.65	1.49763	1.49304	1.48852	1.48397	–	–	–	–
[2], x1 = 0.7	1.50246	1.49784	1.49331	1.48874	–	–	–	–
[2], x1 = 0.75	1.50695	1.50232	1.49779	1.49321	–	–	–	–
[2], x1 = 0.8	1.51112	1.50649	1.50196	1.49738	–	–	–	–
[2], x1 = 0.85	1.51498	1.51035	1.50582	1.50123	–	–	–	–
[2], x1 = 0.9	1.51852	1.51391	1.50938	1.50479	–	–	–	–
[2], x1 = 0.95	1.52184	1.51723	1.51272	1.50814	–	–	–	–
[2], x1 = 1	1.52481	1.52022	1.51573	1.51116	–	–	–	–
